Laboratory results as given in patent US7115708B2 (priority 2001, dated 2006).

Legend:
[1] = test system: MIA PaCa-2
[2] = test system: MCF-7; experiment: cells; details: Homo sapiens, MCF7, read-out: Estimated IC50 (50% Inhibition Concentration)
[3] = test system: MIA PaCa-2; experiment: cells; details: Homo sapiens, MIA PaCa-2, read-out: Estimated IC50 (50% Inhibition Concentration)
[4] = test system: MCF-7
[5] = test system: tumor patients; details: in vivo; cited from earlier work

Compound | Estimated TGI (Total Growth Inhibition) [1] [nM] | IC50 [2] [nM] | IC50 [3] [nM] | Estimated TGI (Total Growth Inhibition) [4] [nM] | patients with stable tumor disease [5] | toxicity reported [5] | tumor patients with regressive disease [5] [%]
CO[C@@]12[C@H](COC(N)=O)C3=C(C(=O)C(C)=C(N)C3=O)N1C[C@@H]1N[C@@H]12 [Mitomycin] | 150 | 35 | 28 | 180 | – | – | –
^90Y-DOTA-lanreotide | – | – | – | – | roughly 35% | No acute or chronic severe hematological toxicity | 15
